Laboratory results reported in US20030176511A1, “Compositions and methods for treating cardiovascular disorders” (priority 2000, published 2003).

Columns and labels:
[1] = test system: restenosis in rabbit abdominal aorta after arterial balloon injury; test: Intimal thickening (intima and media ratio) in rabbit aorta after arterial balloon injury; format: in vivo; details: rabbits, 0.02% PDA474 in chow for 9 weeks
Description: The intima and media ratio (IMR) was determined by tracing the intimal and medial areas, and dividing their respective total pixel numbers. Higher IMR indicate larger lesions. *Denotes a statistically significant difference with p<0.05.
PDA474 was synthesised and supplied in pure form (99%) by Polysciences, Inc. (400 Valley Road, Warrington, Pa. 18976, USA).
Twelve New Zealand White rabbits were fed a standard rabbit chow (100 g per day) with (n=6) or without (n=6) 0.02 weight % PDA474 (in dry powder form) for 9 weeks. The initial dosage was based on in vitro studies and other useful dosage amounts can be easily derived using a similar approach.
At the end of week 3, the abdominal aorta of all rabbits was injured by ABI. At the end of week 9, the infra-renal abdominal aorta was removed, fixed in 4% buffered formalin, embedded in paraffin, sectioned and stained with Verhoeff Hematoxylin. The intima and media ratio (IMR) was then determined by tracing the intimal and medial areas, and dividing their respective total pixel numbers. Higher IMR indicate larger lesions.

[2] = test system: coronary restenosis after BA; details: probucol given alone, compared to the placebo, MVP trial; cited from earlier work
plasma lipids = test: Ex vivo AAPH-induced oxidation of plasma from apoE−/− mice; format: in vivo; details: plasma from probucol-treated mice, 5 mM AAPH, 37° C.
Description: Pooled plasma obtained from control (open symbols) or probucol-treated (closed symbols) mice was exposed to 5 mM of the aqueous peroxyl radical generator AAPH and incubated under air at 37° C. […] Data shown are mean±SD of a single oxidation experiment performed in triplicate using pooled plasma. Where error bars are not shown, error is smaller than the symbol.
Plasma was obtained from control and probucol mice and aliquots frozen for subsequent determination of lipids. Separate aliquots were acidified with metaphosphoric acid (5%) to stabilize vitamin C prior to freezing and storage at −80° C. The remainder was pooled appropriately and used for ex vivo oxidation initiated by the peroxyl radical generator AAPH and lipoprotein separation by FPLC with UV280nm detection, as described in J Lipid Res. 1 999;40:1104-1112.
Enhanced resistance of plasma lipoproteins to oxidation is often used as a measure of antioxidant efficacy. Therefore, we examined AAPH-induced oxidation of pooled plasma from control and treated animals. […] These observations can be explained readily on the basis of tocopherol-mediated peroxidation.

[3] = Lipids and antioxidants in plasma lipoprotein fractions (size exclusion FPLC) of apoE−/− mice; format: in vivo; details: pooled plasma, 1% w/w probucol, 24 weeks
Description: Plasma was collected from individual mice, pooled, diluted 1:10 with buffer used for FPLC and 300 μL subjected to size exclusion chromatography. Chromatograms shown are representative of two analyses of independent pooled plasma samples. The horizontal bars indicate the corresponding fractions collected for each lipoprotein pool. Plasma was obtained from control and probucol mice and aliquots frozen for subsequent determination of lipids. Separate aliquots were acidified with metaphosphoric acid (5%) to stabilize vitamin C prior to freezing and storage at −80° C. The remainder was pooled appropriately and used for ex vivo oxidation initiated by the peroxyl radical generator AAPH and lipoprotein separation by FPLC with UV280nm detection, as described in J Lipid Res. 1 999;40:1104-1112. […] Two consecutive separations each employing 300 μL undiluted plasma were carried out. The corresponding eluents from both injections were collected, pooled according to fractions corresponding to very low-density lipoprotein (VLDL), LDL, and HDL plus mouse serum albumin (see FIG. 3) and then extracted and analysed for lipids and antioxidants.

[4] = test system: atherosclerotic lesions in apoE−/− mice; test: Atherosclerotic lesion cross-section areas (morphometry) in apoE−/− mice; format: in vivo; details: lesion area of probucol group relative to controls
Description: Male C57BL/6J mice, homozygous for the disrupted apoE gene (apoE−/−) were fed standard chow (Lab-Feed, Sydney, Australia) until aged 10 weeks. […] The high fat diet (control and probucol-supplemented) was prepared, according to the specifications of the Harlan Teklad diet TD88137. […] After bleeding, mice were gravity-perfused for 5 min with DPBS containing 20 μM BHT and 1 mM EDTA (Buffer A) and aortas removed as described in Letters JM, et al (1999). Briefly, hearts, ascending and descending aortas (past the femoral junction) were excised and carefully cleaned. […] Once cleaned, aortas were separated from the heart taking care to include all aortic material while avoiding heart tissue. To obtain sufficient material for HPLC analysis (i.e., 30-40 mg wet weight tissue) it was necessary to pool 7-8 aortas. Separate pools of aortas were prepared for both groups and then immediately frozen in Buffer A and stored at −80° C. until analyses. Lesions were assessed at four different sites along the aorta, in the aortic root, in the aortic arch, the descending thoracic and in the proximal abdominal aorta, and cross-sections (2-3 μm thick) were prepared and stained with Weigert's hematoxylin-van Gieson.

[5] = Plasma lipids and antioxidants in apoE−/− mice; format: in vivo
Description: Male C57BL/6J mice, homozygous for the disrupted apoE gene (apoE−/−) were fed standard chow (Lab-Feed, Sydney, Australia) until aged 10 weeks. […] Separate aliquots were acidified with metaphosphoric acid (5%) to stabilize vitamin C prior to freezing and storage at −80° C. The remainder was pooled appropriately and used for ex vivo oxidation initiated by the peroxyl radical generator AAPH and lipoprotein separation by FPLC with UV280nm detection, as described in J Lipid Res. 1 999;40:1104-1112. Lipid-soluble antioxidants and lipids were quantified by HPLC as described in FASEB J. 1999;13:667-675. For ascorbate analysis, frozen acidified samples were thawed, diluted with DPBS to adjust the pH to 7.4 and then immediately subjected to HPLC. Plasma triglycerides were determined enzymatically (Boehringer, Mannheim, Germany).

[6] = test system: lipoprotein oxidation in the vessel wall; test: Aortic lipids, oxidised lipids and antioxidants in apoE−/− mice (HPLC of aortic homogenates); format: in vivo
Description: Male C57BL/6J mice, homozygous for the disrupted apoE gene (apoE−/−) were fed standard chow (Lab-Feed, Sydney, Australia) until aged 10 weeks. […] After bleeding, mice were gravity-perfused for 5 min with DPBS containing 20 μM BHT and 1 mM EDTA (Buffer A) and aortas removed as described in Letters JM, et al (1999). Briefly, hearts, ascending and descending aortas (past the femoral junction) were excised and carefully cleaned. […] Once cleaned, aortas were separated from the heart taking care to include all aortic material while avoiding heart tissue. To obtain sufficient material for HPLC analysis (i.e., 30-40 mg wet weight tissue) it was necessary to pool 7-8 aortas. Separate pools of aortas were prepared for both groups and then immediately frozen in Buffer A and stored at −80° C. until analyses. Pooled aortas were snap frozen in liquid nitrogen, pulverised, resuspended in Buffer A, homogenised and then either treated with metaphosphoric acid (for ascorbate) or extracted and the hexane fraction analysed for lipid-soluble antioxidants, cholesterol (C), choleseteryl esters (CE), lipid hydroperoxides (LOOH) and cholesteryl ester hydroxides (CE-OH) by HPLC as described in Methods Enzymol. 1994;233:469489. LOOH and CE-OH were measured as markers of lipoprotein lipid oxidation, as they are the primary and major oxidation products formed when lipoproteins from apoE−/− mice undergo oxidation. […] All compounds were quantified by peak area comparison with authentic standards, and protein determined.

[7] = test system: atherosclerosis/restenosis in ballooned New Zealand White rabbits; test: Atherosclerosis/restenosis in cholesterol-fed, ballooned New Zealand White rabbits; format: in vivo; details: 2% cholesterol diet with 1% probucol for 6 weeks
Description: Aortic endothelial denudation was performed at week 3 by withdrawing an inflated 3F Fogarty balloon embolectomy catheter three times down the length of the aorta. Plasma was obtained from animals as described in Example 1 at the start and end of the study. At the end of the study period, individual aortas were removed and prepared for HPLC analysis as in Example 1. Lipids and antioxidants including probucol and its metabolites, bisphenol and diphenoquinone, were analyzed by RP-HPLC as described previously. Aortas designated for histology were perfusion-fixed with 4% (v/v) formaldehyde and transferred into formalin. Cross-sections (2-3 μm thick) were prepared and stained with Weigert's hematoxylin-van Gieson, and the intima to media ratio determined for three sections.

[8] = test system: tocopherol-mediated peroxidation (TMP); test: Anti-TMP index; format: biochemical
α-tocopheroxyl radical = test: Tocopheroxyl radical attenuating ability (TRAA); format: biochemical; details: kobs in presence (+) or absence (−) of test compound
[9] = compared to controls, per protein

For `CC(C)(C)c1cc(SSc2cc(C(C)(C)C)c(O)c(C(C)(C)C)c2)cc(C(C)(C)C)c1O` [PDA474], the “lower IMR in drug-treated animals vs control” value [1] was 34% and the “intima and media ratio (IMR)” value ([1]; ABI at end of week 3, mean±SEM, n=6) was 0.76±0.13.
In the case of `CC(C)(Sc1cc(C(C)(C)C)c(O)c(C(C)(C)C)c1)Sc1cc(C(C)(C)C)c(O)c(C(C)(C)C)c1` [Probucol], the “reduction of angiographic lumen loss” value [2] is given as 68%, the “reduction of need for repeat angioplasty at 6 months” value [2] is given as 58% and the “reduction of restenosis rate per segment” value [2] is given as 47%. For the same compound, the “probucol level during the oxidation period” value (plasma lipids) was “remained unchanged”, the “onset and initial rate of accumulation of CE-O(O)H” value (plasma lipids; vs control plasma) was “delayed and decreased respectively” and the “-TOH in HDL fraction” value ([3]; HDL plus mouse serum albumin) was 1.4. For the same compound, the “C20:4 in HDL fraction” value ([3]; HDL plus mouse serum albumin) was 24.0, the “C in HDL fraction” value ([3]; HDL plus mouse serum albumin) was 0.12 and the “Total CoQ in HDL fraction” value ([3]; HDL plus mouse serum albumin) was 0.1. The “-TOH in LDL fraction” value ([3]; LDL) was 7.8, the “C20:4 in LDL fraction” value ([3]; LDL) was 50.4 and the “C in LDL fraction” value ([3]; LDL) was 0.96. For the same compound, the “Total CoQ in LDL fraction” value ([3]; LDL) was 0.4, the “-TOH in VLDL fraction” value ([3]; VLDL) was 0.56 and the “C18:2 in VLDL fraction” value ([3]; VLDL) was 340. The “Total CoQ in VLDL fraction” value ([3]; VLDL) was 0.1, the “Treatment effect, Abdominal Aorta” value [4] was 10% and the “Treatment effect, Arch” value [4] was 44%. For the same compound, the “Treatment effect, Descending Thoracic Aorta” value [4] was 15%, the “Plasma Triglyceride” value ([5]; apoE−/− mice, probucol-supplemented diet, 24 weeks) was 0.4 ± 0.0 mM and the “drug converted into bisphenol or diphenoquinone, plasma” value ([5]; plasma) was ~8%. For the same compound, the “increase of plasma ascorbate” value ([5]; plasma, probucol treated vs control mice) was ~1.4 fold, the “drug metabolised to bisphenol or diphenoquinone, aorta” value ([6]; aorta) was ~11% and the “decrease of aortic concentration of C” value [6, 9] was 5.6 fold. The “decrease of aortic concentration of total CoQ (ubiquinones plus ubiquinols)” value [6, 9] was 2.5 fold, the “decrease of aortic concentration of vitamin E” value [6, 9] was 2.9 fold and the “proportion of aortic lipids that was oxidized” value [7] was “not affected”. For the same compound, the atherosclerosis ([7]; aortic denudation at week 3) was “significantly decreased atherosclerosis” and the “content of plasma and aortic lipids, and absolute amounts of oxidized lipids” value ([7]; vs controls) was “significantly decreased”.
With `Cc1cc(C(C)(C)C)c(O)c(C(C)(C)C)c1` [BHT] the Anti-TMP index [8] was 8-10 and the “TRAA (decay of α-tocopheroxyl radical; kobs(+)/kobs(−))” value (α-tocopheroxyl radical) was “Immediate decay”.
